Reference: patent publication US12358886B2, “Heterocyclic compounds for use in the treatment of cancer” (Artios Pharma Limited, priority 2019, dated 2025)

biological target: Polθ protein (amino acids 2-2590) (Homo sapiens, UniProt O75417); assay: Polθ full length enzyme potency assay (PicoGreen); details: Polθ IC50 (nM), full length N-His, C-term FLAG tagged Polθ, PicoGreen fluorescence, 12 point concentration response
Sequence (O75417 2-2590): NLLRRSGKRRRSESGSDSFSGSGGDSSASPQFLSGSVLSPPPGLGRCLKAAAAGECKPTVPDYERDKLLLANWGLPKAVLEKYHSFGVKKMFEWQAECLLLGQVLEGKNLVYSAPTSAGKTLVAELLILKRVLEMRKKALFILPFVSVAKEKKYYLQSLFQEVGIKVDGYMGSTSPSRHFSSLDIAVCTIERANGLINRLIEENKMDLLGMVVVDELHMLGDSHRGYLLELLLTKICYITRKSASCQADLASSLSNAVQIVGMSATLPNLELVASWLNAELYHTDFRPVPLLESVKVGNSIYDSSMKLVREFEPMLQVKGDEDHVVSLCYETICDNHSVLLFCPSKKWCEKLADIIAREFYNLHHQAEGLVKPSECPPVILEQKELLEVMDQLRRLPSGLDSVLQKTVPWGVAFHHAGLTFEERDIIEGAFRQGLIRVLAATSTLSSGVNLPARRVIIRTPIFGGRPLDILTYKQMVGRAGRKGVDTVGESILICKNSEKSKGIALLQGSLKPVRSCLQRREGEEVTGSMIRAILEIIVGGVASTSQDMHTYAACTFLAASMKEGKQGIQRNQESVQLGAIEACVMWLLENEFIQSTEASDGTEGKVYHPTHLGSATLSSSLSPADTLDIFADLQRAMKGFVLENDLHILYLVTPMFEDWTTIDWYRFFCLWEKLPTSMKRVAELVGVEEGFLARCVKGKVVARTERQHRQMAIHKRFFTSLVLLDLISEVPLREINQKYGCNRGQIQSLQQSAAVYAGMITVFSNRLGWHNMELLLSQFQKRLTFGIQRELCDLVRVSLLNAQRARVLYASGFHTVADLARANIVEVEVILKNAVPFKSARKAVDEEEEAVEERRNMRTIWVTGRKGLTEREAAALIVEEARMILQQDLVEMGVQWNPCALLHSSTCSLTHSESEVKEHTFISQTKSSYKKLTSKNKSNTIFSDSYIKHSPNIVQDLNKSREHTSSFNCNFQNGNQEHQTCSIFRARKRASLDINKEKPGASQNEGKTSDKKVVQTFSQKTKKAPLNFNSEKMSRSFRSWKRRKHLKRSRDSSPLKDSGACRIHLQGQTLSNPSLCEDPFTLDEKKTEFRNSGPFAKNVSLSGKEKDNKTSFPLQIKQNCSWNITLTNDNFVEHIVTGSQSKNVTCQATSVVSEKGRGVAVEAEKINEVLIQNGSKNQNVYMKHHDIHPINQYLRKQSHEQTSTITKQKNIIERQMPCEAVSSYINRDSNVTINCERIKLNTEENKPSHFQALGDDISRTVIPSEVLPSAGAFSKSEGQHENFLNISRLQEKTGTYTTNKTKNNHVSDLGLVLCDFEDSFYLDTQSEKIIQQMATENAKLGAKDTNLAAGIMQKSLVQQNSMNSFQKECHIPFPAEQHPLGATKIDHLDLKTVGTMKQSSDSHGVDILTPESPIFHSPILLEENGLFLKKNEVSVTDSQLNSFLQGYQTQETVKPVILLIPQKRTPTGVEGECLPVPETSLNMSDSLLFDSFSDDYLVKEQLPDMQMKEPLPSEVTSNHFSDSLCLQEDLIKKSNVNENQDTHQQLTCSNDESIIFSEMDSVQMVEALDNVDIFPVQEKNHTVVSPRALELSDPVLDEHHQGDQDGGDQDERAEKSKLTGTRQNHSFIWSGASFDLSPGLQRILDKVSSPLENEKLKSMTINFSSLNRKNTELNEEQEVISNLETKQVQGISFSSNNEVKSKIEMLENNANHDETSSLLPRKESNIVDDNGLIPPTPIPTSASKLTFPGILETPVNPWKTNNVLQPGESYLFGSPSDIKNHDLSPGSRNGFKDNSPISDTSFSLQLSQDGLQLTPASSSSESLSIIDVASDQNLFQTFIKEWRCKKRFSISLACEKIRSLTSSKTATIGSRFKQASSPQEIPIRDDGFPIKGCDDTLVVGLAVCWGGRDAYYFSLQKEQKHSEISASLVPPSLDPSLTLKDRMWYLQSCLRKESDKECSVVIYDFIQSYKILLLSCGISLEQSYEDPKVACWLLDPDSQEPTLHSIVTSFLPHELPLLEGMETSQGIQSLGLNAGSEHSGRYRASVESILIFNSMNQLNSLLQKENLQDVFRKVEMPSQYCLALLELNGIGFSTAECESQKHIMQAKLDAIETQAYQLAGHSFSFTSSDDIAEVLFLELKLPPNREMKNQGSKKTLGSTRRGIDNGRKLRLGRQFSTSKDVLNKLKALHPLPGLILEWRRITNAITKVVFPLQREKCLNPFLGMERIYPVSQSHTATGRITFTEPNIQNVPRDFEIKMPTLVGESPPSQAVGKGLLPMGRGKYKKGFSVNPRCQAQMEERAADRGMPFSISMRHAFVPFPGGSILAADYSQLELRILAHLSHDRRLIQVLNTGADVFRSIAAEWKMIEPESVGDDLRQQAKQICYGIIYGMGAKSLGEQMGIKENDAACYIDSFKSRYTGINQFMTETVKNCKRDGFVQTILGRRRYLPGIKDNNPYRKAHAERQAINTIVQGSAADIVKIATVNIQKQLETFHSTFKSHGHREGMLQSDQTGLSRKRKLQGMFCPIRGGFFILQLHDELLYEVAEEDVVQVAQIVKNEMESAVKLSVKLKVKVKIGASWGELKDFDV

| IC50 [nM] | SMILES |
| --- | --- |
| 104 | CCN(C(=O)[C@@H]1C[C@H](N2CCOC[C@H]2CO)CN1c1nc(C)cc(C(F)(F)F)c1C#N)c1ccc(F)c(Cl)c1 [Example 153, (2S,4S)-N-(3-Chloro-4-fluorophenyl)-1-(3-cyano-6-methyl-4-(trifluoromethyl)pyridin-2-yl)-N-ethyl-4-((R)-3-(hydroxymethyl)morpholino)pyrrolidine-2-carboxamide] |
| 15 | CCN(C(=O)[C@@H]1C[C@H](N2CCO[C@H](CO)C2)CN1c1nc(C)cc(C(F)(F)F)c1C#N)c1ccc(F)c(Cl)c1 [Example 154, (2S,4S)-N-(3-Chloro-4-fluorophenyl)-1-(3-cyano-6-methyl-4-(trifluoromethyl)pyridin-2-yl)-N-ethyl-4-((S)-2-(hydroxymethyl)morpholino)pyrrolidine-2-carboxamide] |
| 15 | CCN(C(=O)[C@@H]1C[C@H](N2CCO[C@@H](CO)C2)CN1c1nc(C)cc(C(F)(F)F)c1C#N)c1ccc(F)c(Cl)c1 [Example 155, (2S,4S)-N-(3-Chloro-4-fluorophenyl)-1-(3-cyano-6-methyl-4-(trifluoromethyl)pyridin-2-yl)-N-ethyl-4-((R)-2-(hydroxymethyl)morpholino)pyrrolidine-2-carboxamide] |
| 4 | Cc1cc(C(F)(F)F)cc(N2C(=O)NC[C@H]2C(=O)N(C)c2ccc(F)c(Cl)c2)n1 [Example 156, (S)—N-(3-Chloro-4-fluorophenyl)-N-methyl-3-(6-methyl-4-(trifluoromethyl)pyridin-2-yl)-2-oxoimidazolidine-4-carboxamide] |
| 32 | CCN(C(=O)[C@@H]1CNC(=O)N1c1cc(C(F)(F)F)cc(C)n1)c1ccc(F)c(Cl)c1 [Example 157, (S)—N-(3-Chloro-4-fluorophenyl)-N-ethyl-3-(6-methyl-4-(trifluoromethyl)pyridin-2-yl)-2-oxoimidazolidine-4-carboxamide] |

Continued, compound first:

| SMILES | IC50 [nM] |
| --- | --- |
| Cc1cc(C(F)(F)F)cc(N2C(=O)NC[C@H]2C(=O)N(C)c2ccc(F)c(Cl)c2F)n1 [Example 158, (S)—N-(3-Chloro-2,4-difluorophenyl)-N-methyl-3-(6-methyl-4-(trifluoromethyl)pyridin-2-yl)-2-oxoimidazolidine-4-carboxamide] | 2 |
| Cc1cc(C(F)(F)F)cc(N2C(=O)N(S(C)(=O)=O)C[C@H]2C(=O)N(C)c2ccc(F)c(Cl)c2)n1 [Example 159, (S)—N-(3-Chloro-4-fluorophenyl)-N-methyl-3-(6-methyl-4-(trifluoromethyl)pyridin-2-yl)-1-(methylsulfonyl)-2-oxoimidazolidine-4-carboxamide] | 178 |
| Cc1cc(C(F)(F)F)cc(N2C(=O)N(CC(C)O)C[C@H]2C(=O)N(C)c2ccc(F)c(Cl)c2)n1 (stereo partly drawn) [Example 160, (4S)—N-(3-Chloro-4-fluorophenyl)-1-(2-hydroxypropyl)-N-methyl-3-(6-methyl-4-(trifluoromethyl)pyridin-2-yl)-2-oxoimidazolidine-4-carboxamide] | 6 |
| Cc1cc(C(F)(F)F)cc(N2C(=O)NC[C@H]2C(=O)N(c2ccc(F)c(Cl)c2F)C2CC2)n1 [Example 161, (S)—N-(3-Chloro-2,4-difluorophenyl)-N-cyclopropyl-3-(6-methyl-4-(trifluoromethyl)-pyridin-2-yl)-2-oxoimidazolidine-4-carboxamide] | 12 |
| [2H]C([2H])([2H])N(C(=O)[C@@H]1[C@H](O)[C@H](O)C(=O)N1c1cc(C(F)(F)F)cc(C)n1)c1ccc(F)c(Cl)c1F [Example 162, (2S,3S,4S)—N-(3-Chloro-2,4-difluorophenyl)-3,4-dihydroxy-N-(methyl-d3)-1-(6-methyl-4-(trifluoromethyl)pyridin-2-yl)-5-oxopyrrolidine-2-carboxamide] | 3 |
| [2H]C([2H])([2H])N(C(=O)[C@@H]1[C@H](O)[C@H](O)C(=O)N1c1cc(C(F)(F)F)cc(C)n1)c1ccc(F)c(Cl)c1 [Example 163, (2S,3S,4S)—N-(3-Chloro-4-fluorophenyl)-3,4-dihydroxy-N-(methyl-d3)-1-(6-methyl-4-(trifluoromethyl)pyridin-2-yl)-5-oxopyrrolidine-2-carboxamide] | 11 |
